pIC50: −log10 of the molar value. Several values for one entry are separate records, joined by “and”; a condition that tells them apart may be missing. Equal values may be shown once.
Legend:
recombinant human CES2 = target: T1, recombinant human CES2 (Homo sapiens, UniProt O00748); test: Inactivation kinetics of recombinant CES2, pNPV hydrolysis progress curves; type: biochemical; details: CES1 and MAGL versus CES2
T1 sequence (O00748 27-559): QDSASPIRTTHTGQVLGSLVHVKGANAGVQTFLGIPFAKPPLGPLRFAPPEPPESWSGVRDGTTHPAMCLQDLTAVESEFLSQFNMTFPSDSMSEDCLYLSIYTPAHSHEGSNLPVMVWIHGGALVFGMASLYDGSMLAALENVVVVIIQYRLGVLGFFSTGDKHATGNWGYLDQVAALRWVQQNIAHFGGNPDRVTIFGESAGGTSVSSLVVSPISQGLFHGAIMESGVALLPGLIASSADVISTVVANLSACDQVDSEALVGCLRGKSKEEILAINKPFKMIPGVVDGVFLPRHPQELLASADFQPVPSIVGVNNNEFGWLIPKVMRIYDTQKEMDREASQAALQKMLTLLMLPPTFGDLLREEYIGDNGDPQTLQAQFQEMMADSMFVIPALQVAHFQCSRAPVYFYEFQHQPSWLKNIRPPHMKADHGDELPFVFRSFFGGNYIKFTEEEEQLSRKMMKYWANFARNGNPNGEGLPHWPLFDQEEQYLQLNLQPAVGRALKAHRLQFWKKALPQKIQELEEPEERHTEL

CES1 [1] = target: T2, CES1 (Homo sapiens, UniProt P23141); type: biochemical
T2 sequence (P23141 18-567): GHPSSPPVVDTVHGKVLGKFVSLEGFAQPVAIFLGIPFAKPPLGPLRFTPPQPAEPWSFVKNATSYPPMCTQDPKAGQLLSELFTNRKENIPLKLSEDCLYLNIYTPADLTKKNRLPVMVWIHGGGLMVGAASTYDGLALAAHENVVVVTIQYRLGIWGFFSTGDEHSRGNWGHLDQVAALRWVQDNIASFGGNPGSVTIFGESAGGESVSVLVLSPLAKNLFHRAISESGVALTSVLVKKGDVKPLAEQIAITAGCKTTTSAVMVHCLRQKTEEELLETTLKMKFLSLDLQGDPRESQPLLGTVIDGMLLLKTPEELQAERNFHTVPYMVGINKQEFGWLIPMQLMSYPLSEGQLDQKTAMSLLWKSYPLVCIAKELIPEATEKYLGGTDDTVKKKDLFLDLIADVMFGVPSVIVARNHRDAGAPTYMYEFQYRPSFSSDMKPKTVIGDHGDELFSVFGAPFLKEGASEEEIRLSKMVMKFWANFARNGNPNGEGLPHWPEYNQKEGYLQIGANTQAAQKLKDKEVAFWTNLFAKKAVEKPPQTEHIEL

HepG2 cells = test: Inhibition and recovery of esterase activity in intact HepG2 cells; type: cell-based
MAGL = details: mouse brain membrane proteome; cited from earlier work
FAAH = details: rat brain membranes; cited from earlier work
CES1 [2] = target: T2, CES1; test: Esterase activity of HepG2 cell lysate in presence of S-3030; type: biochemical
rat ortholog of CES1 = details: cited from earlier work
CES1 [3] = target: T2, CES1; test: Inactivation kinetics of recombinant CES1, pNPV hydrolysis progress curves; type: biochemical; details: comparison with oxon values of ref 24

Compound: O=C(Oc1ccc([N+](=O)[O-])cc1)N1CCC(C(O)(c2ccc3c(c2)OCO3)c2ccc3c(c2)OCO3)CC1 [JZL184]
- bimolecular rate constants for CES1 and MAGL greater than for CES2 (recombinant human CES2): 17-38 fold
- reactivation rate slower than CES1 inhibited by URB597 (CES1 [1]): 4.5 x
- t1/2 (half life of reactivation) (CES1 [1]): 49 ± 15 h and 49 h and 49 ± 15^b h
- esterase activity remained depressed (HepG2 cells; 10 μM, 30 min treatment, over 48 hr after treatment): ~ 90%
- inhibition of esterase activity (HepG2 cells; 10 μM, 30 min treatment, time 0, pNPV substrate): ≥ 90%

Compound: NC(=O)c1cccc(-c2cccc(OC(=O)NC3CCCCC3)c2)c1 [URB597]
- t1/2 (half life of reactivation) (CES1 [1]): 11 h and 11 ± 4^a h
- esterase activity, % of the control activity (HepG2 cells; 10 μM, 30 min treatment, recovery over 48 hr): 50%
- inhibition at 10 µM (HepG2 cells; Homo sapiens, HepG2, 0.5 h, read-out: inhibition of esterase activity): ≥ 90%
- pIC50 (FAAH): 8.34

Compound: O=C1C(=O)c2sccc2-c2ccsc21 [S-3030, Thieno[3,2-e][1]benzothiophene-4,5-dione]
- esterase activity sensitive to S-3030-mediated inhibition (CES1 [2]; activity recovered by 48 hr following URB597 treatment (data not shown)): 74%
- share of esterase activity accounted for by CES1 (S-3030 sensitive) (CES1 [2]; untreated HepG2 cell lysate, 10 μM S-3030, pNPV substrate): 71.5±2.1%

Compound: CNC(=O)Oc1cccc2ccccc12 [carbaryl]
- ki (bimolecular rate constant) (rat ortholog of CES1): 856 M⁻¹ s⁻¹

Compound: chlorpyrifos oxon
- more reactive toward CES1 than JZL184 (CES1 [3]): 500 x

Source: paper PMC3470872 (Biochemical pharmacology, 2012)
